This passage reports SP value results from patent US20250201546A1, “METHOD FOR PROCESSING SUBSTRATE, KIT FOR PROCESSING SUBSTRATE, AND METHOD FOR MANUFACTURING SEMICONDUCTOR SUBSTRATE” (TOKYO OHKA KOGYO CO., LTD., priority 2023, published 2025).

The data set can be described thus: Hansen solubility parameter (SP value and terms) of reagents. The data set is classed as physicochemical. Also noted: unit: MPa^0.5. To be noted: SP^2=δD^2+δP^2+δH^2. The source says:
The SP value of Hansen solubility parameter herein is a value obtained by dividing the solubility parameter introduced by Hildebrand into three parameters, the dispersion term OD, the polarity term OP, and the hydrogen bond term OH, and plotting a point in a three-dimensional space (Hansen space, HSP space).
The dispersion term δD represents the effect due to dispersion force, the polarity term δP represents the effect due to dipole-dipole force, and the hydrogen bond term OH represents the effect due to hydrogen bond force. […]
δD: The energy derived from dispersion forces between molecules (the dispersion term) δP: The energy derived from polar forces between molecules (the polarity term) δH: The energy derived from hydrogen bond forces between molecules (the hydrogen bond term) The unit of each of the terms is MPa^0.5.
There is a relationship between Hildebrand's SP value and Hansen's HSP as shown below.
(Hildebrand's SP)^2=δD^2+δP^2+δH^2
Suitable examples of the silane coupling agent having a SP value of 15 or more may include the followings. Needless to say, the silane coupling agent used in the present embodiment is not limited to those below.

On to `CCO[Si](CCCNCCN)(OCC)OCC` [AEAPTES, 3-(2-aminoethylamino) propyltriethoxysilane], for which the SP value is on record as 15.6.

Regarding `CO[Si](CCCNCCN)(OC)OC` [AEAPTMS, 3-(2-aminoethylamino) propyltrimethoxysilane], the SP value turned out to be 16.2.

On to `CO[Si](CCCNCCCCCCN)(OC)OC` [AHAPTMS, 3-(6-aminohexylamino) propyltrimethoxysilane], for which the SP value is 15.3.

Turning to `CCO[Si](CCCN)(OCC)OCC` [APTES, 3-aminopropyltriethoxysilane], the SP value is on record as 15.2.

`CO[Si](CCCN)(OC)OC` [APTMS, 3-aminopropyltrimethoxysilane] showed an SP value of 15.8.

As for `CO[Si](C)(OC)OC` [MTMS, methyltrimethoxysilane], the SP value is 15.2.
